Source: patent publication US10905651B1, “Zeinmersome nanocarriers for drug delivery to the liver” (King Abdulaziz University, priority 2020, dated 2021)

How the values were obtained:
AT4 receptors = settings: cited from earlier work
[1] = cited from earlier work
[2] = system: TAA-induced hepatic fibrosis rats; test: Histopathology of duodenal sections and detection of sprue-like enteropathy in TAA-induced hepatic fibrosis rats; type: in vivo, rat; settings: two months
Method: Rats were given freshly prepared TAA (0.9% w/v in saline solution, 200 mg/kg, ip) twice weekly for eight weeks. A normal control (NC) group of rats (n=8) received injections of the vehicle twice weekly for eight weeks. The TAA-treated rats were randomly assigned to groups (n=8), including a test group for each dosage of a free drug (not encapsulated in ZMS), each dosage of zeinmersomes encapsulating the drug, and a positive control group (PC) having hepatic fibrosis but receiving a vehicle-only treatment instead of a drug treatment. Five groups of rats (n=8) were given freshly prepared TAA (0.9% w/v in saline solution, 200 mg/kg, ip) twice weekly for eight weeks and a normal control (NC) group received vehicle injections, as described in Example 4. The five TAA groups included a positive control group (PC, untreated) and four groups treated with low and high doses (2 and 4 mg/kg/day) of OM as raw drug (OL & OH, respectively) and the same low and high doses (2 and 4 mg/kg/day) of OM formulated as zeinmersomes (OLZMS & OHZMS, respectively). […] The plasma levels of ALT and AST and the homogenate levels of IL-6, reduced glutathione (GSH), TNF-α, malondialdehyde (MDA), and protein content were measured using ELISA kits (MyBioSource, Inc. CA, USA). In addition, the concentrations of olmesartan in plasma and liver homogenate were measured by HPLC/MS. […]

[3] = system: bile duct-ligated fibrotic rats; settings: 1 mg/kg/day orally; cited from earlier work
fructose-fed rats = settings: 0.1 mg/kg/day; cited from earlier work
AT1 receptor = molecular target: T1, AT1 receptor (Homo sapiens, UniProt P30556); settings: cited from earlier work
T1 sequence (P30556 1-359): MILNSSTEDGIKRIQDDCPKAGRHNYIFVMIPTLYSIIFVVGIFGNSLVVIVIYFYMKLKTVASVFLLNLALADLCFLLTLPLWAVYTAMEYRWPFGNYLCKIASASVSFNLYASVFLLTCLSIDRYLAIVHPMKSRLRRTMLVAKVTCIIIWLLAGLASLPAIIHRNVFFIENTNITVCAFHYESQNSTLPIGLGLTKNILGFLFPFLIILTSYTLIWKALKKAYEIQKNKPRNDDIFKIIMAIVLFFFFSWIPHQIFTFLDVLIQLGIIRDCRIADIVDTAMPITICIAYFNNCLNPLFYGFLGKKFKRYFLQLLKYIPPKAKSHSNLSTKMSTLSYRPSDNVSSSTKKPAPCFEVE

For `CCCc1nc(C(C)(C)O)c(C(=O)OCc2oc(=O)oc2C)n1Cc1ccc(-c2ccccc2-c2nnn[nH]2)cc1` [OM, (5-methyl-2-oxo-1,3-dioxol-4-yl)methyl 5-(2-hydroxypropan-2-yl)-2-propyl-3-[[4-[2-(2H-tetrazol-5-yl)phenyl]phenyl]methyl]imidazole-4-carboxylate], the “antagonistic effects on the AT4 receptors” value (AT4 receptors) is given as “almost no antagonistic effects”, the drug accumulation ([1]; OM once daily for 10 days) is given as “did not result in drug accumulation” and the “dose at which safe and well tolerated” value ([1]; Schwocho et al. 2001) is given as “up to 160 mg/day”. The “time for plasma olmesartan to approach steady state” value ([1]; treatment with OM) was 5 days, the “duodenal histopathology (TAA-induced duodenal changes)” value ([2]; high dose 4 mg/kg/day oral) was “mild improvement” and the “duodenal histopathology (TAA-induced duodenal changes)” value ([2]; low dose 2 mg/kg/day oral) was “swollen distorted villi with damaged desquamated surface epithelium”. For the same compound, the “liver hydroxyproline content, mRNA expression of collagen, α-smooth muscle actin, and plasma levels of TGF-β” value [3] was “significantly reduced”, the TNF-α level (fructose-fed rats) was “reduced” and the “cAMP level in the soleus muscle” value (fructose-fed rats) was “increased”. The AT1 receptor blockade (AT1 receptor) was “competitive and selective AT1 receptor blocker”.
